Measurements as given in patent US20170008888A1 (KYORIN PHARMACEUTICAL CO., LTD., priority 2014, published 2017).

Experiments:
[1] = system: human PBMCs; test: Human PBMC TNF-α response to endotoxin (ELISA); assay type: cell-based; conditions: 0.1 μg/ml LPS 16 h, read-out: EC50 for the inhibition of the human PBMC TNF-α response to endotoxin, ave. ± S.D.
In short: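 PBMCs at 2e6 cells/ml in RPMI 1640 with 10% charcoal-dextran-treated FBS were pre-treated 1 h at 37 °C with compound (4-point 1:5 dilution from 10 μM). Stimulation with 0.1 μg/ml E. coli 0111:B4 LPS for 16 h; TNF-α measured by ELISA (A450) in 25-fold diluted supernatant.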

[2] = molecular target: T1, recombinant human ERK5 catalytic domain (Homo sapiens, UniProt Q13164); test: Recombinant human ERK5 radiometric (HotSpot) assay; assay type: biochemical; conditions: 10 μM ATP, 20 μM myelin basic protein substrate; read-out: rhERK5 IC50
T1 construct: Recombinant human ERK5 catalytic domain radiometric assays; purchased Reaction Biology, Corp (Malvern, Pa.), which ran the assay as a service
T1 sequence (Q13164 55-347 limits assumed): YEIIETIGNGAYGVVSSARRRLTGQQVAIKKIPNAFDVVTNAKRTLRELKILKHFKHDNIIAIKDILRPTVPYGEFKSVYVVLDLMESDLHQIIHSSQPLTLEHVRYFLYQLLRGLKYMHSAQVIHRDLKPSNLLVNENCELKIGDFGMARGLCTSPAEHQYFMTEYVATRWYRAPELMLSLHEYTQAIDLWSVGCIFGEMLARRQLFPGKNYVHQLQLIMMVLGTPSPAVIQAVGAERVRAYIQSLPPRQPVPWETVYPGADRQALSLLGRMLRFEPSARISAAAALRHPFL
Description: In this example, potency of the compounds in recombinant human ERK5 was assayed.
Recombinant human ERK5 catalytic domain radiometric assays were performed by Reaction Biology, Corp (Malvern, Pa.). The HotSpot radiometric assay is based on conventional filter-binding assays (Nature Biotechnology (2011) 29: 1039-1045). Compounds were tested at 20 μM down by ⅓ in a 10 point serial dilution series. Briefly, [γ-33P]-ATP was used as the tracer along with 10 μM cold ATP to label ERK5 in the presence of 20 μM myelin basic protein substrate.

| Compound | EC50 [1] [nM] | IC50 [2] [nM] |
| --- | --- | --- |
| CCOc1cc(C(=O)N2CC[C@@H](N3CCNCC3)C2)ccc1Nc1cc2c(cn1)N(C)C(=O)c1ccccc1N2C [Compound T58] | 1040 | 20 to 50 |
| CCCOc1cc(C(=O)N2CCC[C@H](O)C2)ccc1Nc1cc2c(cn1)N(C)C(=O)c1ccccc1N2C [Compound T39] | 920 | > 200 |
| CCOc1cc(C(=O)N2CCNC(C)CC2)ccc1Nc1cc2c(cn1)N(C)C(=O)c1ccccc1N2C (stereo not drawn) [Compound T46] | 600 | < 20 |
| CN1C(=O)c2ccccc2N(C)c2cc(Nc3ccc(C(=O)N4CCCNCC4)cc3OCCF)ncc21 [Compound T33] | 670 | < 20 |
| CCOc1cc(C(=O)N2CCC(N3CCCNCC3)CC2)ccc1Nc1cc2c(cn1)N(C)C(=O)c1ccccc1N2C [Compound T45] | 1480 | < 20 |
| CCOc1cc(C(=O)N2CCN(C(=O)CN)CC2)ccc1Nc1cc2c(cn1)N(C)C(=O)c1ccccc1N2C [Compound T30] | 770 | < 20 |
| CCOc1cc(C(=O)N2CCN(CCOC)CC2)ccc1Nc1cc2c(cn1)N(C)C(=O)c1ccccc1N2C [Compound T16] | 920 | 20 to 50 |
| CCOc1cc(C(=O)N2CCC[C@H](O)C2)ccc1Nc1cc2c(cn1)N(C)C(=O)c1scnc1N2C [Compound T13] | 950 | 50 to 200 |
| CCOc1cc(C(=O)N2CCN(c3cccnc3)CC2)ccc1Nc1cc2c(cn1)N(C)C(=O)c1ccccc1N2C [Compound T36] | 110 | < 20 |
